How the values were obtained:
Type in all cases: cell-based, human
[1] = system: SGC-7901 early differentiation gastric cancer cell; experiment: MTT anti-proliferative assay, SGC-7901; conditions: for IC50: MTT, 48 h
Procedure: (§1) The anti-proliferation activities of the synthesized analogs were assessed by an in vitro MTT assay conducted on thirteen human cell lines. Their cytotoxic activities were evaluated by measuring the inhibition of net cell growth. […]
(§2) 1.6. Cell lines and cell culture
(§3) MTT was purchased from Sigma-Aldrich Co. (St. Louis, MO, USA). The PI and Annexin V-FITC apoptosis detection kit were purchased from Invitrogen (Eugene, OR, USA). All human cell lines were used in this study. […]
(§4) cell, MCF-7 breast cancer cell, MCF-10A normal breast cell, Raji B lymphoblastoid cell and diffuse large B-cell lymphoma SU-DHL-10 cell were initially purchased from American Type Culture Collection (ATCC, Manassas, Virginia). media, DMEM, and FBS were provided from Gibco Company.
(§5) 1.7. Cell growth inhibition assay (MTT assay)
(§6) The experiment was carried out according to the method of reference. Briefly, cells were plated in 96-well plates at a den- […]
(§7) the anti-proliferative activities were determined by MTT assay. […]
(§8) (Becton-Dickinson, Franklin Lakes, NJ). […]

[2] = system: MGC-803 late stage differentiation gastric cancer cell; experiment: MTT anti-proliferative assay, MGC-803; conditions: for IC50: MTT, 48 h
Procedure: as §1, §2, §3, §4, §5, §6, §7, §8

[3] = system: HeLa cervical cancer cell; experiment: MTT anti-proliferative assay, HeLa; conditions: MTT, 48 h
Procedure: as §1, §2, §3, §4, §5, §6, §7, §8

HepG2 hepatoma cell = experiment: MTT anti-proliferative assay, HepG2; conditions: for IC50: MTT, 48 h, read-out: IC50 HepG-2
Procedure: as §1, §2, §3, §4, §5, §6, §7, §8

[4] = system: BEL-7402 liver cancer cell; experiment: MTT anti-proliferative assay, BEL-7402; conditions: for IC50: MTT, 48 h
Procedure: as §1, §2, §3, §4, §5, §6, §7, §8

[5] = system: Raji B lymphoblastoid cell; experiment: MTT anti-proliferative assay, Raji; conditions: for IC50: MTT, 48 h, read-out: IC50 Raji
Procedure: as §1, §2, §3, §4, §5, §6, §7, §8

L-02 normal liver cell = experiment: MTT assay, L-02 normal cells; conditions: 48 h
Procedure: as §1, §2, §3, §4, §5, §6, §7, §8

[6] = system: HCT116 colectal cancer cell; experiment: MTT anti-proliferative assay, HCT116; conditions: for IC50: MTT, 48 h, read-out: IC50 HCT-116
Procedure: as §1, §2, §3, §4, §5, §6, §7, §8

AGS gastric cancer cell = experiment: MTT anti-proliferative assay, AGS; conditions: for IC50: MTT, 48 h
Procedure: as §1, §2, §3, §4, §5, §6, §7, §8

[7] = system: MCF-10A normal breast cell; experiment: MTT assay, MCF-10A normal cells; conditions: 48 h
Procedure: as §1, §2, §3, §4, §5, §6, §7, §8

A549 lung cancer cell = experiment: MTT anti-proliferative assay, A549; conditions: for IC50: MTT, 48 h
Procedure: as §1, §2, §3, §4, §5, §6, §7, §8

MCF-7 breast cancer cell = experiment: MTT anti-proliferative assay, MCF-7; conditions: MTT, 48 h
Procedure: as §1, §2, §3, §4, §5, §6, §7, §8

[8] = system: diffuse large B-cell lymphoma SU-DHL-10 cell; experiment: MTT anti-proliferative assay, SU-DHL-10; conditions: for IC50: MTT, 48 h, read-out: IC50 SU-DHL-10
Procedure: as §1, §2, §3, §4, §5, §6, §7, §8

Structure (SMILES)	IC50 [1]	IC50 [2]	IC50 [3]	IC50 (HepG2 hepatoma cell)	IC50 [4]	IC50 [5]	IC50 [6]	IC50 (AGS gastric cancer cell)	IC50 (A549 lung cancer cell)	IC50 (MCF-7 breast cancer cell)	IC50 [8]	SI (selectivity index), IC50 (L-02)/IC50 (SGC-7901) [1]	SI (selectivity index), IC50 (L-02)/IC50 (MGC-803) [2]	SI (selectivity index), IC50 (L-02)/IC50 (HepG-2) (HepG2 hepatoma cell)	IC50 (L-02 normal liver cell)	SI (selectivity index), IC50 (L-02)/IC50 (HCT-116) [6]	SI (selectivity index), IC50 (L-02)/IC50 (AGS) (AGS gastric cancer cell)	IC50 [7]	SI (selectivity index), IC50 (L-02)/IC50 (BEL-7402) [4]	SI (selectivity index), IC50 (L-02)/IC50 (Raji) [5]	other results
N#C/C(=C\c1cccs1)c1ccc(OC(F)(F)F)cc1 [Compound 1a3b]	57.2 ± 14.3 µM	41.5 ± 2.1 µM	> 100 µM	> 100 µM	> 100 µM	> 100 µM	30.8 ± 2.9 µM	89.8 ± 1 µM	> 100 µM	> 100 µM	> 100 µM	> 1.7	> 1.7	> 1.6	> 100 µM	> 1.8	> 2.3	> 100 µM	–	–	SI (selectivity index), IC50 (L-02)/IC50 (A549) (A549 lung cancer cell): > 1.1
N#C/C(=C\c1cccc2ccccc12)c1ccc(OC(F)(F)F)cc1 [Compound 1a3c]	> 100 µM	> 100 µM	> 100 µM	> 100 µM	> 100 µM	> 100 µM	> 100 µM	> 100 µM	> 100 µM	> 100 µM	> 100 µM	–	–	–	> 100 µM	–	–	> 100 µM	–	–	–
N#C/C(=C\c1ccccc1)c1cccc(OC(F)(F)F)c1 [Compound 1b2a]	> 100 µM	> 100 µM	> 100 µM	> 100 µM	> 100 µM	> 100 µM	> 100 µM	> 100 µM	> 100 µM	> 100 µM	> 100 µM	–	–	–	> 100 µM	–	–	> 100 µM	–	–	–
N#C/C(=C\c1ccc(Cl)cc1)c1cccc(OC(F)(F)F)c1 [Compound 1b2c]	> 100 µM	> 100 µM	> 100 µM	> 100 µM	> 100 µM	> 100 µM	> 100 µM	> 100 µM	> 100 µM	> 100 µM	> 100 µM	–	–	–	> 100 µM	–	–	> 100 µM	–	–	–
N#C/C(=C\c1ccc(Br)cc1)c1cccc(OC(F)(F)F)c1 [Compound 1b2d]	21.9 ± 3.3 µM	10.1 ± 0.9 µM	66.8 ± 9.8 µM	34.9 ± 3.2 µM	14.6 ± 4.6 µM	16.3 ± 6.1 µM	15.1 ± 2.9 µM	13.9 ± 4.2 µM	> 100 µM	> 100 µM	35.6 ± 0.9 µM	> 2.3	> 4.9	> 1.4	50.4 ± 0.8 µM	–	> 3.5	34.1 ± 3.6 µM	> 3.4	> 3.0	SI (selectivity index), IC50 (L-02)/IC50 (SU-DHL-10) [8]: > 1.4
CCc1ccc(/C=C(\C#N)c2cccc(OC(F)(F)F)c2)cc1 [Compound 1b2f]	61.7 ± 0.4 µM	49.3 ± 0.3 µM	> 100 µM	72.9 ± 9.9 µM	44.8 ± 10.6 µM	> 100 µM	> 100 µM	43.8 ± 21.8 µM	> 100 µM	> 100 µM	> 100 µM	> 1.6	> 2.0	> 1.9	> 100 µM	–	> 2.2	> 100 µM	> 2.2	–	–
CC(C)c1ccc(/C=C(\C#N)c2cccc(OC(F)(F)F)c2)cc1 [Compound 1b2g]	> 100 µM	> 100 µM	> 100 µM	> 100 µM	> 100 µM	> 100 µM	> 100 µM	> 100 µM	> 100 µM	> 100 µM	> 100 µM	–	–	–	> 100 µM	–	–	> 100 µM	–	–	–

These reach a lower IC50 [1]. Values come first.

IC50 [1]	IC50 [2]	IC50 [3]	IC50 (HepG2 hepatoma cell)	IC50 [4]	IC50 [5]	IC50 [6]	IC50 (AGS gastric cancer cell)	IC50 (A549 lung cancer cell)	IC50 (MCF-7 breast cancer cell)	IC50 [8]	Structure (SMILES)	SI (selectivity index), IC50 (L-02)/IC50 (SGC-7901) [1]	SI (selectivity index), IC50 (L-02)/IC50 (MGC-803) [2]	SI (selectivity index), IC50 (L-02)/IC50 (HepG-2) (HepG2 hepatoma cell)	IC50 (L-02 normal liver cell)	SI (selectivity index), IC50 (L-02)/IC50 (HCT-116) [6]	SI (selectivity index), IC50 (L-02)/IC50 (AGS) (AGS gastric cancer cell)	IC50 [7]	SI (selectivity index), IC50 (L-02)/IC50 (BEL-7402) [4]	SI (selectivity index), IC50 (L-02)/IC50 (Raji) [5]	other results
8.1 ± 2.9 µM	11.1 ± 0.3 µM	61.7 ± 3.3 µM	38.2 ± 0.1 µM	39.4 ± 6.1 µM	43.1 ± 4.5 µM	25 ± 0.5 µM	4.5 ± 2 µM	> 100 µM	> 100 µM	29.3 ± 2 µM	Cc1ccc(/C=C(\C#N)c2cccc(OC(F)(F)F)c2)cc1 [Compound 1b2e]	> 6.6	> 4.8	> 1.4	54.2 ± 12.3 µM	> 2.1	> 11.9	> 100 µM	> 1.3	> 1.2	SI (selectivity index), IC50 (L-02)/IC50 (SU-DHL-10) [8]: > 1.8
7.1 ± 2.4 µM	3.7 ± 1.3 µM	> 100 µM	42.3 ± 18.2 µM	1 ± 0.8 µM	20.1 ± 2.3 µM	0.3 ± 0.2 µM	> 100 µM	> 100 µM	> 100 µM	> 100 µM	CN(C)c1ccc(/C=C(\C#N)c2cccc(OC(F)(F)F)c2)cc1 [Compound 1b2h]	> 7.2	> 13.9	> 1.3	52 ± 8.4 µM	> 153.1	–	> 100 µM	> 50.5	> 2.5	–
5.4 ± 0.2 µM	1.2 ± 0.6 µM	> 100 µM	15.9 ± 5.2 µM	3 ± 1 µM	17 ± 4.3 µM	1.1 ± 0.3 µM	8.2 ± 2.6 µM	> 100 µM	> 100 µM	60.4 ± 0.7 µM	N#C/C(=C\c1ccc(F)cc1)c1cccc(OC(F)(F)F)c1 [Compound 1b2b]	> 2.9	> 13.1	> 1.0	16.1 ± 1 µM	> 14.5	> 1.9	11.3 ± 2.3 µM	> 5.2	–	–
